According to publication PMC3809587, “Structure and function of the Smoothened extracellular domain in vertebrate Hedgehog signaling” (eLife, 2013):

How the values were obtained:
Zebrafish embryos = assay: Zebrafish embryo treatment: eng2a:GFP reporter and ptch2 in situ hybridization; type: in vivo; conditions: 30hpf embryos, 20(S)-OHC 50 µM; for eng2a:GFP reporter expression: cyclopamine 40 µM
Procedure: Adult fishes were maintained on a 14-hr light/10-hr dark cycle at 28°C in the AVA (Singapore) certified IMCB Zebrafish Facility. Zebrafish strain used was Tg(eng2a:eGFP)^i233 ([Maurya et al., 2011]).
The embryos of Tg(eng2a:eGFP)^i233 were dechorinated using pronase (Roche) at one cell stage. […] Control embryos were kept in water containing the same amount of ethanol, used as the vehicle for the drugs. Standard in situ hybridization (ISH) was performed with anti-Dig alkaline phosphatase and chromogenic substrate NBT/BCIP as previously described ([Oxtoby and Jowett, 1993]). ptch2 (formerly ptc1) RNA probe was prepared from template as previously described ([Concordet et al., 1996]).

[1] = test system: Hh reporter (8xGli-responsive promoter); conditions: ref Nachtergaele et al., 2012; cited from earlier work
mSmo CRD-Fc = biological target: T1, mSmo CRD-Fc (Mus musculus, UniProt P56726); assay: Ligand affinity chromatography: mSmo CRD-Fc binding to 20(S)-OHC beads; conditions: for inhibition of binding of mSmo CRD-Fc to 20(S)-OHC beads: free compound added as competitor
T1 construct: made in house; host or cells: 293F suspension cells (secreted)
T1 sequence (P56726 33-183): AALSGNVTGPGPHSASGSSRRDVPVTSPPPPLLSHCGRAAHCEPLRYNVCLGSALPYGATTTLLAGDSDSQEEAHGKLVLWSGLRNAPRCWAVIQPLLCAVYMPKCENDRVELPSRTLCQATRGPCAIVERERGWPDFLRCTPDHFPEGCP
Procedure: After binding was allowed to proceed for 12 hr at 4°C, the resin was washed and captured protein was eluted as described above. The presence of mSmo CRD-Fc was measured by an anti-human HRP-coupled antibody (1:20,000) or anti-human IR800-coupled antibody (1:10,000; for all quantitation, detected by LiCor Odyssey). The presence of zSmo ectodomain protein was measured by colloidal Coomassie staining (GelCode Blue, Pierce/Thermo Scientific). […]

ΔCRD-YFP-mSmo = biological target: T2, ΔCRD-YFP-mSmo (Mus musculus, UniProt P56726, DEL68-184); assay: Hh signaling by ΔCRD-YFP-mSmo in Smo−/− cells (immunoblot, Hh reporter); type: cell-based
T2 construct: All mSmo mutants were made using Quickchange or PCR methods in the context of a previously described construct encoding full-length mouse Smo (UniProt P56726); expressed in transfected cells

[2] = test system: endogenous mSmo in cilia of NIH 3T3 cells; parameters: method as in Rohatgi et al., 2009; conditions: absence of Shh; ref Rohatgi et al., 2009; cited from earlier work
[3] = test system: endogenous mSmo in cilia of NIH 3T3 cells; assay: Immunofluorescence of ciliary Smo accumulation; type: cell-based, mouse; conditions: NIH 3T3, 4 hr, presence of Shh
YFP-mSmo [4] = biological target: T3, YFP-mSmo (Mus musculus, UniProt P56726); assay: Gli1 and Gli3R immunoblot in Smo−/−:YFP-mSmo cells; type: cell-based; conditions: SAG 100 nM, 20(S)-OHC 10 μM
T3 construct: Smo^−/− cells stably expressing full-length (FL) YFP-mSmo or ΔCRD-YFP-mSmo were treated with Shh, SAG (100 nM) or 20(S)-OHC (10 μM); expressed in transfected cells
Procedure: Cultured cells stably expressing YFP-mSmo, ΔCRD-YFP-mSmo, or ΔC-YFP-mSmo were scraped into ice-cold PBS containing SigmaFast Protease inhibitor cocktail (Sigma) and collected as a pellet by centrifugation (1000×g, 10 min, 4°C). Cells were lysed (1 hr, 4°C) by agitation in modified RIPA buffer (50 mM sodium-Tris pH 7.4, 150 mM sodium chloride, 2% NP-40, 0.5% deoxycholate, 0.1% sodium-dodecyl sulfate [SDS], 1 mM dithiothreitol and the SigmaFast Protease inhibitor cocktail). After clarification (20,000×g, 45 min, 4°C), the protein concentration of each lysate was measured using the bicinchoninic acid assay (BCA, Pierce/Thermo Scientific, Rockford, IL). Lysate aliquots containing equal amount of total protein were fractionated on an 8% SDS-PAGE gel and transferred to a nitrocellulose membrane for immunoblotting with anti-Gli1 antibody (#L42B10, 1:500; Cell Signaling, Denvers, MA), anti-GFP antibody (1:5000; Novus, Littleton, CO), anti-Gli3 antibody (AF3690 1:200; R&D, Minneapolis, MN) and anti-p38 antibody (ab31828, 1:2000; Abcam, Cambridge, MA). In Figures 1–4, vertical dashed black lines represent non-contiguous lanes from the same immunoblot juxtaposed for clarity.

[5] = test system: Drosophila melanogaster Smo (dSmo) and dSmo CRD; assay: 20(S)-OHC bead binding of Drosophila Smo; conditions: bead-immobilized 20(S)-OHC
zSmo ectodomain = biological target: T4, zSmo ectodomain (Danio rerio, UniProt Q5RH73); assay: Ligand affinity chromatography: zSmo ectodomain binding to 20(S)-OHC beads; parameters: species or system zebrafish
T4 construct: zSmo-ectodomain: a.a; 29–212), fused C-terminally with a with a hexa-histidine (His6) tag; His6 (C); made in house
T4 sequence (Q5RH73 29-212): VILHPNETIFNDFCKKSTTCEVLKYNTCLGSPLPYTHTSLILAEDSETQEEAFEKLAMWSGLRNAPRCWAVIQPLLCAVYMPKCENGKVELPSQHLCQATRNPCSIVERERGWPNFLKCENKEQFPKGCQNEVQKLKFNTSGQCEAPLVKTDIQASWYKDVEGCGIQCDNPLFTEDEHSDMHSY
Procedure: For ligand affinity chromatography with purified mSmo CRD-Fc or zSmo ectodomain, protein was diluted in 20 mM Tris pH 8.5, 150 mM NaCl, 0.3% octyl-glucoside prior to addition of competitors and 20(S)-OHC beads. After binding was allowed to proceed for 12 hr at 4°C, the resin was washed and captured protein was eluted as described above. The presence of mSmo CRD-Fc was measured by an anti-human HRP-coupled antibody (1:20,000) or anti-human IR800-coupled antibody (1:10,000; for all quantitation, detected by LiCor Odyssey). The presence of zSmo ectodomain protein was measured by colloidal Coomassie staining (GelCode Blue, Pierce/Thermo Scientific).
For Hh reporter assays, each point is reported as the mean ± standard deviation (SD) derived from triplicates. Each result in the paper was repeated at least three times with similar outcomes. Relative luciferase activity was calculated by dividing Gli luciferase by Renilla luciferase luminescence. Fold-change in reporter activity was calculated by dividing each replicate by the mean reporter activity of the vehicle-treated control. Normalized (% of max) Hh reporter activity was calculated by setting the maximum value of a set to 100% and zero to 0% using the ‘normalize’ function of GraphPad Prism. […]

YFP-mSmo [6] = biological target: T3, YFP-mSmo; assay: 20(S)-OHC bead pull-down of YFP-mSmo from cell lysates; type: binding; conditions: 50 μM free 20(S)-OHC as competitor
Procedure: 293T cells transfected with constructs encoding mSmo variants were lysed in hypotonic SEAT buffer (250 mM sucrose, 1 mM EDTA, 10 mM acetic acid, 10 mM triethanolamine and the SigmaFast EDTA-Free protease inhibitor cocktail). After the removal of nuclei by centrifugation (900×g, 5 min, 4°C), membranes were pelleted by ultracentrifugation (95,000×g, 30 min) and solubilized in a n-dodecyl-β-D-maltopyranoside (DDM) extraction buffer (50 mM Tris pH 7.4, 150 mM NaCl, 10% vol/vol glycerol, 0.5% wt/vol DDM and the SigmaFast EDTA-Free protease inhibitor cocktail) for 2 hr at 4°C, followed by removal of insoluble material by ultracentrifugation (100,000×g, 30 min). This DDM membrane extract was incubated with 20(S)-OHC beads for 12 hr at 4°C to allow binding to equilibrium. After extensive washing, proteins captured on the beads were eluted with reducing SDS sample buffer. The presence of YFP-mSmo in these eluates was determined by quantitative immunoblotting with an anti-YFP antibody (NB600-308, 1:5000; Novus) and infrared imaging (Li-Cor Odyssey).

T3 sequence (P56726 33-793): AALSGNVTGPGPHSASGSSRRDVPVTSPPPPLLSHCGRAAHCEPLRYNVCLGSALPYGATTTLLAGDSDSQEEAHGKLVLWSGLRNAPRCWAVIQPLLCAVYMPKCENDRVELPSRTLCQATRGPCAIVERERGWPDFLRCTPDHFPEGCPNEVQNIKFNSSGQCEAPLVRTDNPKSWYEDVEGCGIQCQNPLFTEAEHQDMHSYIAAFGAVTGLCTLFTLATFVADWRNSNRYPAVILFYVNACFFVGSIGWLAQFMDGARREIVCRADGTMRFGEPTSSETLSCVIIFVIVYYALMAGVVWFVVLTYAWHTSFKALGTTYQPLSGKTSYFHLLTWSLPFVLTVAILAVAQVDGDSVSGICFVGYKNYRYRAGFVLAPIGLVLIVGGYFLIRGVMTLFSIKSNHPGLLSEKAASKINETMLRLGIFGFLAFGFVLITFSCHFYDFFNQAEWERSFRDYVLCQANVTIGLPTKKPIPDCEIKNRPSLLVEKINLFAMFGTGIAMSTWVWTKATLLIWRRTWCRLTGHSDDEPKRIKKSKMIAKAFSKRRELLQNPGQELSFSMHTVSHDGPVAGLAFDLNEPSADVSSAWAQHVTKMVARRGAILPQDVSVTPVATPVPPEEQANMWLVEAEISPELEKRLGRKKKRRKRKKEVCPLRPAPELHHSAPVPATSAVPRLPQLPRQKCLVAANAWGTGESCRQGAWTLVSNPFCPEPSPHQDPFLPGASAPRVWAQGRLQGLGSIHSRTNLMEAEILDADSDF
T2 sequence (P56726 with tags, fused parts or gaps DEL68-184): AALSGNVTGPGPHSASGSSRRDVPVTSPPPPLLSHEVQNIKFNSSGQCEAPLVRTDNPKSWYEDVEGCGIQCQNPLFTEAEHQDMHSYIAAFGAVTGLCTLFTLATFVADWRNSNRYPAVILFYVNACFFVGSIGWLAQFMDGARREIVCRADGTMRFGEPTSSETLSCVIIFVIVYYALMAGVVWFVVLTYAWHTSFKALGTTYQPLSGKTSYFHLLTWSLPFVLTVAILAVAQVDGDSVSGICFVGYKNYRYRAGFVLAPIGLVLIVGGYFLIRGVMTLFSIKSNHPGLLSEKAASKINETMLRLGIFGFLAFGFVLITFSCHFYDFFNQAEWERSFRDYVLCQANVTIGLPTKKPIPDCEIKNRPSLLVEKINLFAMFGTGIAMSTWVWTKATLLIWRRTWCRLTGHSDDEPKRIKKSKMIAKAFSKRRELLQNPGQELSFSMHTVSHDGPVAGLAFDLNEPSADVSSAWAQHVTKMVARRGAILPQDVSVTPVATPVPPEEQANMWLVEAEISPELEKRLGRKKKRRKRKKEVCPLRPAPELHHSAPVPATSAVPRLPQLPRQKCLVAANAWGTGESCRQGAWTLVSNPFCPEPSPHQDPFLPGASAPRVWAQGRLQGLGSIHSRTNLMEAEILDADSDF

Row | SMILES | eng2a:GFP reporter expression (Zebrafish embryos) | potency against Shh-activated Smo compared to 20(S)-OHC-activated Smo [1] | inhibition of binding of mSmo CRD-Fc to 20(S)-OHC beads (mSmo CRD-Fc) | inhibition of SAG activated ΔCRD-YFP-mSmo (ΔCRD-YFP-mSmo; SAG 25 nM, cyclopamine 5 μM, Hh reporter) | Smo accumulation in cilia, compound alone [2] | Shh-induced Smo accumulation in cilia [3] | Gli3R level (YFP-mSmo [4]) | activation of Hh target gene Gli1 (YFP-mSmo [4]) | ptch2 expression by in situ hybridization (Zebrafish embryos) | binding of dSmo and dSmo CRD to 20(S)-OHC beads [5] | Kd (mSmo CRD-Fc; fixed amount of protein, increasing amounts of bead-immobilized sterol, read-out: Kd, mSmo CRD-Fc-20(S)-OHC interaction) [nM] | Kd (zSmo ectodomain; fixed amount of protein, increasing amounts of bead-immobilized sterol, read-out: Kd, zSmo ectodomain-20(S)-OHC interaction) [nM] | inhibition of binding of zSmo ectodomain to 20(S)-OHC beads (zSmo ectodomain; free compound added as competitor) | competition of YFP-mSmo binding to 20(S)-OHC beads (YFP-mSmo [6]) | response of ΔCRD-YFP-mSmo to agonist (Hh target genes, Gli3R) (ΔCRD-YFP-mSmo; SAG 100 nM, 20(S)-OHC 10 μM)
1 | CC1=C2C[C@H]3[C@@H](CC=C4C[C@@H](O)CC[C@@]43C)[C@@H]2CC[C@]12O[C@@H]1C[C@H](C)CN[C@H]1[C@H]2C [cyclopamine] | suppressed expression of the reporter gene | much less potent | blocked the interaction | remained susceptible to inhibition by cyclopamine | can drive Smo accumulation in cilia even in the absence of Shh | do not block Smo ciliary accumulation |  |  |  |  |  |  |  |  | 
2 | CC(C)CCC[C@](C)(O)[C@H]1CC[C@H]2[C@@H]3CC=C4C[C@@H](O)CC[C@]4(C)[C@H]3CC[C@@]21C [20(S)-OHC, 20(S)-hydroxycholesterol] | significant increase in the number of GFP positive fast twitch muscles |  | Binding could be inhibited |  |  |  | loss of the repressor form of Gli3 (Gli3R) was observed | could activate a Hh target gene, Gli1 | modest expansion of the expression domain | failed to bind 20(S)-OHC beads | ~180 | ~170 | inhibited in a dose-responsive fashion | Binding to beads was not seen | failed to activate Hh target genes or to extinguish Gli3R levels
